{
  "source": "ChEMBL document CHEMBL5726056",
  "about": "“2-oxo-3,4-dihydroquinolin-6-yl sulphonamide CPDS and their use as plant growth regulators” (2019)",
  "key": {"[1]": {"test": "(§1) PP2C Activity Assay: HAB1 and PYL proteins were expressed and purified as described in Park et al. ((2009) Science 324(5930):1068-1071), with minor modifications. To obtain GST-HAB1, the HAB1 cDNA was cloned into pGex-2T. Expression was conducted in BL21[DE3]pLysS host cells. Transformed cells were pre-cultured overnight, transferred to LB medium and cultured at 30° C. to culture A600 of ¿0.5.The culture was then cooled on ice and MnCl2 added to 4 mM and IPTG added to 0.3 mM. After 16 hours incubation at 15° C., cells were harvested and recombinant proteins were purified on glutathione agarose as described in Park et al. To obtain 6×His-PYL receptor fusion proteins, expression constructs previously described by Okamoto et al. 2013, (PNAS 110(29): 12132-12137) were used. ABA receptors were expressed and purified as described above.For the values shown in Table B5, PP2C activity assays using recombinant receptors and PP2Cs were carried out as follows: purified proteins were pre-incubated in 160 μl assay buffer containing 100 mM Tris-HCl-pH7.9, 100 mM NaCl, 3 μg bovine serum albumin, 0.1% 2-mercaptoethanol, 1 mM MnCl2 with ABA or agonists (compounds of the present invention) for 30 minutes at room temperature. […]"}, "[2]": {"test": "as §1", "remark": "listed apart in the source"}},
  "data": [
    {"smiles": "CCN1C(=O)CC(C)c2cc(NS(=O)(=O)Cc3ccc(C4CC4)cc3)ccc21", "note": "(configuration not stated)", "values": [
      {"measurement": "IC50", "setting": "[1]", "value": 200, "unit": "nM"},
      {"measurement": "IC50", "setting": "[2]", "value": 101, "unit": "nM"}
    ]}
  ]
}
